PubChem BioAssay (NCI)
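Test compounds were applied to cells in 96-well plates for 48 hours at 5 doses. GI50 = concentration required for 50% inhibition of growth. The concentration for full growth arrest is given as TGI.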

Key:
Experiment in all cases: growth of human tumour cells (NCI), 48 h
[1] = test system: NCI-H23 lung
[2] = test system: M14 melanoma
[3] = test system: CAKI-1 renal
[4] = test system: EKVX NSCLC
[5] = test system: SK-MEL-28 melanoma
[6] = test system: NCI-H226 lung
[7] = test system: HL-60(TB) leukemia
[8] = test system: MCF7 breast
[9] = test system: NCI-H460 lung
[10] = test system: SN12C renal
[11] = test system: COLO 205 colon
[12] = test system: RXF 393 renal
[13] = test system: U251 CNS
[14] = test system: IGROV1 ovarian
[15] = test system: TK-10 renal
[16] = test system: HOP-92 NSCLC
[17] = test system: BT-549 breast
[18] = test system: SF-268 CNS
[19] = test system: CCRF-CEM leukemia
[20] = test system: ACHN renal
[21] = test system: HCT-15 colon
[22] = test system: OVCAR-3 ovarian
[23] = test system: HOP-62 NSCLC
[24] = test system: MALME-3M melanoma
[25] = test system: SK-OV-3 ovarian
[26] = test system: UACC-62 melanoma
[27] = test system: HT29 colon
[28] = test system: LOX IMVI melanoma
[29] = test system: OVCAR-5 ovarian
[30] = test system: PC-3 prostate
[31] = test system: KM12 colon
[32] = test system: SNB-75 CNS
[33] = test system: SW-620 colon
[34] = test system: HCT-116 colon
[35] = test system: A498 renal
[36] = test system: T-47D breast
[37] = test system: SF-295 CNS
[38] = test system: UACC-257 melanoma
[39] = test system: SR leukemia
[40] = test system: NCI-H522 lung
[41] = test system: SNB-19 CNS
[42] = test system: DU-145 prostate
[43] = test system: UO-31 renal
[44] = test system: SK-MEL-5 melanoma
[45] = test system: OVCAR-4 ovarian
[46] = test system: MDA-MB-435
[47] = test system: MOLT-4 leukemia
[48] = test system: SF-539 CNS
[49] = test system: HCC-2998 colon
[50] = test system: 786-0 renal
[51] = test system: RPMI-8226 leukemia
[52] = test system: HS 578T breast
[53] = test system: A549 NSCLC
[54] = test system: OVCAR-8 ovarian
[55] = test system: NCI/ADR-RES ovarian
[56] = test system: K-562 leukemia
[57] = test system: SK-MEL-2 melanoma
[58] = test system: MDA-MB-231 breast

`CN(Cc1ccccc1)c1ccc(CO)c(Cl)c1` was tested, and the GI50 [1] was 17.9 µM, the TGI [1] was > 100 µM and the GI50 [2] was 29 µM. For the same compound, the TGI [2] was > 100 µM, the GI50 [3] was 2.93 µM and the TGI [3] was 50.9 µM. For the same compound, the GI50 [4] was 22 µM, the TGI [4] was 98.8 µM and the GI50 [5] was 50.5 µM. For the same compound, the TGI [5] was > 100 µM, the GI50 [6] was 0.142 µM and the TGI [6] was 0.324 µM. The GI50 [7] was 17.4 µM, the TGI [7] was 80 µM and the GI50 [8] was 1.49 µM. The TGI [8] was 40.3 µM, the GI50 [9] was 1.72 µM and the TGI [9] was 14.6 µM. For the same compound, the GI50 [10] was 31.8 µM, the TGI [10] was > 100 µM and the GI50 [11] was 7.19 µM. The TGI [11] was 22.5 µM, the GI50 [12] was 13.1 µM and the TGI [12] was > 60.9 µM. For the same compound, the GI50 [13] was 4.55 µM, the TGI [13] was > 90.8 µM and the GI50 [14] was 0.467 µM. For the same compound, the TGI [14] was 3.01 µM, the GI50 [15] was 0.225 µM and the TGI [15] was 1.01 µM. It also gave a GI50 [16] of 3.9 µM, a TGI [16] of 37.4 µM and a GI50 [17] of 21.1 µM. The TGI [17] was > 100 µM, the GI50 [18] was 47.2 µM and the TGI [18] was > 100 µM. The GI50 [19] was 32.5 µM, the TGI [19] was > 100 µM and the GI50 [20] was 57.2 µM. The TGI [20] was > 100 µM, the GI50 [21] was 25.3 µM and the TGI [21] was > 100 µM. For the same compound, the GI50 [22] was 3.36 µM, the TGI [22] was 12.9 µM and the GI50 [23] was 6.41 µM. The TGI [23] was > 58.6 µM, the GI50 [24] was 79 µM and the TGI [24] was > 100 µM. For the same compound, the GI50 [25] was 8.99 µM, the TGI [25] was 52 µM and the GI50 [26] was 0.384 µM. The TGI [26] was 3.93 µM, the GI50 [27] was 9.63 µM and the TGI [27] was > 81.4 µM. For the same compound, the GI50 [28] was 45.8 µM, the TGI [28] was > 100 µM and the GI50 [29] was 0.595 µM. For the same compound, the TGI [29] was 3.08 µM, the GI50 [30] was 28.6 µM and the TGI [30] was > 100 µM. For the same compound, the GI50 [31] was 22.6 µM, the TGI [31] was > 86.5 µM and the GI50 [32] was 22.4 µM. The TGI [32] was > 80.7 µM, the GI50 [33] was 7.98 µM and the TGI [33] was > 100 µM. For the same compound, the GI50 [34] was 0.533 µM, the TGI [34] was 15.1 µM and the GI50 [35] was 0.0652 µM. The TGI [35] was 0.212 µM, the GI50 [36] was 0.857 µM and the TGI [36] was 5.45 µM. The GI50 [37] was 4.25 µM, the TGI [37] was > 76.8 µM and the GI50 [38] was 0.432 µM. The TGI [38] was 1.69 µM, the GI50 [39] was 19 µM and the TGI [39] was > 86.6 µM. The GI50 [40] was 29 µM, the TGI [40] was > 100 µM and the GI50 [41] was > 84.3 µM. The TGI [41] was > 100 µM, the GI50 [42] was 27.8 µM and the TGI [42] was > 100 µM. The GI50 [43] was 15 µM, the TGI [43] was > 100 µM and the GI50 [44] was 13.6 µM. For the same compound, the TGI [44] was 37.5 µM, the GI50 [45] was 2.54 µM and the TGI [45] was 43.6 µM. It also gave a GI50 [46] of 17.6 µM, a TGI [46] of 59.2 µM and a GI50 [47] of 26.4 µM. The TGI [47] was > 82.6 µM, the GI50 [48] was 61.3 µM and the TGI [48] was > 100 µM. The GI50 [49] was 13 µM, the TGI [49] was 51.9 µM and the GI50 [50] was 15.7 µM. For the same compound, the TGI [50] was > 100 µM, the GI50 [51] was 15.4 µM and the TGI [51] was > 96.2 µM. The GI50 [52] was 35.2 µM, the TGI [52] was > 100 µM and the GI50 [53] was 4.74 µM. For the same compound, the TGI [53] was 32.5 µM, the GI50 [54] was 20.7 µM and the TGI [54] was > 100 µM. The GI50 [55] was 18.9 µM, the TGI [55] was 72.6 µM and the GI50 [56] was 9.81 µM. For the same compound, the TGI [56] was > 100 µM, the GI50 [57] was 8.78 µM and the TGI [57] was 49.2 µM. For the same compound, the GI50 [58] was 34.1 µM and the TGI [58] was > 100 µM.
